Among the data in patent publication US6268391A, “Benzylidene-1,3-dihydro-indol-2-one derivatives a receptor tyrosine kinase inhibitors, particularly of Raf kinases” (Glaxo Wellcome Inc., priority 1997, dated 2001) are IC50 values, retold here.

This experiment has as its target T1, Human cRaf1 (Homo sapiens, UniProt P04049).
T1 construct: poly-histidine (C); made in house
Briefly: Raf kinase assay (cRaf1 assay / Raf/MEK cascade assay). It counts as biochemical. The note with it: Table 3; read-out: Raf Kinase activity.

Each structure is given as a SMILES string. pIC50: −log10 of the molar value. Some results are limits rather than exact numbers.

T1 sequence (P04049 whole entry): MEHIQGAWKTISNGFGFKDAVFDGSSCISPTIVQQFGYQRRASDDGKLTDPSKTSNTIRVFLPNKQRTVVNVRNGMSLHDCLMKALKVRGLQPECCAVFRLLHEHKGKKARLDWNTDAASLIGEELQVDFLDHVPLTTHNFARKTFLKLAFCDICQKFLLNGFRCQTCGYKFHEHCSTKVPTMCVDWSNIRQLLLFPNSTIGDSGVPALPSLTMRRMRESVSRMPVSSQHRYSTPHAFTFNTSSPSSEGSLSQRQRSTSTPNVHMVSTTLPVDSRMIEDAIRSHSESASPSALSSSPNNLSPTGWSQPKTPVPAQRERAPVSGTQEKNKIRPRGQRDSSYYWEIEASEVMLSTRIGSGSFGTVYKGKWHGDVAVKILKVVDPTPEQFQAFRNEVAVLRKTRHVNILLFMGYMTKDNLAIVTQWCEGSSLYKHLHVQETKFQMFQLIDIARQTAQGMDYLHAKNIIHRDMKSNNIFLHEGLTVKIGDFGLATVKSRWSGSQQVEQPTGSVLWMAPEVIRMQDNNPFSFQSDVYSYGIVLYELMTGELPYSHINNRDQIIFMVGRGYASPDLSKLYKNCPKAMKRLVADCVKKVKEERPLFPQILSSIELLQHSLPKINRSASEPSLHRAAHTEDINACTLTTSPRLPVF

`CC(C)N(C(=O)Oc1c(Br)cc(C=C2C(=O)Nc3ccc(Cl)cc32)cc1Br)C(C)C` [Example 106, 2,6-Dibromo-4-[(5-chloro-2-oxo-1,2-dihydro-3H-indol-3-ylidene)methyl]phenyl N,N-diisopropylcarbamate]: the pIC50 was 4.00 to 5.00.

For the compound `CN(C)CC(=O)c1ccc2c(c1)C(=Cc1cc(Br)c(O)c(Br)c1)C(=O)N2` [Example 107, 3-(3,5-Dibromo-4-hydroxy-benzylidene)-5-(2-dimethylamino-acetyl)-1,3-dihydro-indol-2-one], the pIC50 was above 6.00.

On to `CCN(CCO)CC(=O)c1ccc2c(c1)C(=Cc1cc(Br)c(O)c(Br)c1)C(=O)N2` [Example 108, 3-(3,5-Dibromo-4-hydroxy-benzylidene)-5-{2-[N-ethyl-N-(2-hydroxy-ethyl)-amino]-acetyl}-1,3-dihydro-indol-2-one], for which the pIC50 was above 6.00.

With `O=C1Nc2c(F)cccc2C1=Cc1cc(Br)c(O)c(Br)c1` [Example 109, 3-(3,5-Dibromo-4-hydroxy-benzylidene)-7-fluoro-1,3-dihydro-indol-2-one], the pIC50 was above 6.00.

Turning to `CN1CCN(CC(=O)c2ccc3c(c2)C(=Cc2cc(Br)c(O)c(Br)c2)C(=O)N3)CC1` [Example 110, 3-(3,5-Dibromo-4-hydroxy-benzylidene)-5-[2-(4-methyl-piperazin-1-yl)-acetyl]-1,3-dihydro-indol-2-one], the pIC50 is above 6.00.

Consider `O=C1Nc2cc(-c3ccccc3)ccc2C1=Cc1cc(Br)c(O)c(Br)c1` [Example 112, 3-(3,5-Dibromo-4-hydroxy-benzylidene)-6-phenyl-1,3-dihydro-indol-2-one], for which the pIC50 is 5.00 to 6.00.

Take `CC(C)Oc1ccc2c(c1)NC(=O)C2=Cc1cc(Br)c(O)c(Br)c1` [Example 113, 3-(3,5-Dibromo-4-hydroxy-benzylidene)-6-isopropoxy-1,3-dihydro-indol-2-one]: the pIC50 was 5.00 to 6.00.

As for `O=C1Nc2ccc(C(=O)CCl)cc2C1=Cc1cc(I)c(O)c(I)c1` [Example 114, 5-(2-Chloro-acetyl)-3-(3,5-diiodo-4-hydroxy-benzylidene)-1,3-dihydro-indol-2-one], the pIC50 was above 6.00.

Consider `CCN(CC)S(=O)(=O)c1ccc2c(c1)C(=Cc1cc(Cl)c(O)c(Cl)c1)C(=O)N2` [Example 115, 3-(3,5-Dichloro-4-hydroxy-benzylidene)-2-oxo-2,3-dihydro-1H-indol-5-sulfonic acid diethylamide], for which the pIC50 was above 6.00.

In the case of `O=C1Nc2ccc(S(=O)(=O)N3CCOCC3)cc2C1=Cc1cc(Cl)c(O)c(Cl)c1` [Example 116, 3-(3,5-Dichloro-4-hydroxy-benzylidene)-5-(morpholine-4-sulfonyl)-1,3-dihydro-indol-2-one], the pIC50 is above 6.00.

Turning to `CC(=O)N1CCc2cc3c(cc21)C(=Cc1cc(Br)c(O)c(Br)c1)C(=O)N3` [Example 118, 5-Acetyl-3-(3,5-dibromo-4-hydroxy-benzylidene)-3,5,6,7-tetrahydro-1H-pyrrolo[2,3-f]indol-2-one], the pIC50 was above 6.00.

Turning to `CCc1ccc2c(c1)C(=Cc1cc(Br)c(O)c(Br)c1)C(=O)N2` [Example 120, 3-(3,5-Dibromo-4-hydroxy-benzylidine)-5-ethyl-1,3-dihydro-indol-2-one], the pIC50 is above 6.00.

On to `O=C1Nc2cc(Br)ccc2C1=Cc1cc(Br)c(O)c(Br)c1` [Example 123, 6-Bromo-3-(3,5-dibromo-4-hydroxy-benzylidene)-1,3-dihydro-indol-2-one], for which the pIC50 is above 6.00.

As for `O=C1Nc2ccc(-c3csc(-c4ccccc4)n3)cc2C1=Cc1cc(Cl)c(O)c(Cl)c1` [Example 124, 3-(3,5-Dichloro-4-hydroxy-benzylidene)-5-(2-phenyl-thiazol-4-yl)-1,3-dihydro-indol-2-one], the pIC50 is above 6.00.

Turning to `O=C1Nc2ccc(-c3csc(-c4ccccc4)n3)cc2C1=Cc1cc(Br)c(O)c(Br)c1` [Example 125, 3-(3,5-Dibromo-4-hydroxy-benzylidene)-5-(2-phenyl-thiazol-4-yl)-1,3-dihydro-indol-2-one], the pIC50 was above 6.00.

In the case of `O=C1Nc2ccc(-c3csc(Nc4ccccc4)n3)cc2C1=Cc1cc(Br)c(O)c(Br)c1` [Example 126, 3-(3,5-Dibromo-4-hydroxy-benzylidene)-5-(2-phenylamino-thiazol-4-yl)-1,3-dihydro-indol-2-one], the pIC50 is above 6.00.

For the compound `O=C1Nc2ccc(-c3csc(Nc4ccccc4)n3)cc2C1=Cc1cc(Cl)c(O)c(Cl)c1` [Example 127, 3-(3,5-Dichloro-4-hydroxy-benzylidene)-5-(2-phenylamino-thiazol-4-yl)-1,3-dihydro-indol-2-one], the pIC50 was above 6.00.

On to `O=C1Nc2ccc(C3=NNC(=S)NC3)cc2C1=Cc1cc(Cl)c(O)c(Cl)c1` [Example 128, 3-(3,5-Dichloro-4-hydroxy-benzylidene)-5-(3-thioxo-2,3,4,5-tetrahydro-[1,2,4]-triazine-6-yl)-1,3-dihydro-indol-2-one], for which the pIC50 is above 6.00.

For the compound `O=C1Nc2ccc(C3=NNC(=S)NC3)cc2C1=Cc1cc(Br)c(O)c(Br)c1` [Example 129, 3-(3,5-Dibromo-4-hydroxy-benzylidene)-5-(3-thioxo-2,3,4,5-tetrahydro-[1,2,4]-triazine-6-yl)-1,3-dihydro-indol-2-one], the pIC50 was above 6.00.

Take `O=C1Nc2ccc3[nH]nnc3c2C1=Cc1cc(Br)c(O)c(Br)c1` [Example 132, 8-(3,5-Dibromo-4-hydroxy-benzylidene)-6,8-dihydro-3H-1,2,3,6-tetraaza-as-indacen-7-one]: the pIC50 is above 6.00.

With `Nc1nc(-c2ccc3c(c2)C(=Cc2cc(Cl)c(O)c(Cl)c2)C(=O)N3)cs1` [Example 134, 5-(2-Amino-thiazol-4-yl)-3-(3,5-dichloro-4-hydroxy-benzylidene)-1,3-dihydro-indol-2-one], the pIC50 was above 6.00.

`Nc1nc2ccc3c(c2s1)C(=Cc1cc(Br)c(O)c(Br)c1)C(=O)N3` [Example 135, 2-Amino-8-(3,5-dibromo-4-hydroxy-benzylidene)-6,8-dihydro-1-thia-3,6-diaza-as-indacen-7-one]: the pIC50 is above 6.00.

Turning to `CC(=O)Nc1nc(-c2ccc3c(c2)C(=Cc2cc(Br)c(O)c(Br)c2)C(=O)N3)cs1` [Example 136, 5-(N-Acetyl-2-amino-thiazol-4-yl)-3-(3,5-dibromo-4-hydroxy-benzylidene)-1,3-dihydro-indol-2-one], the pIC50 was above 6.00.

Take `NC(=O)c1ccc2c(c1)C(=Cc1cc(Br)c(O)c(Br)c1)C(=O)N2` [Example 137, 3-(3,5-Dibromo-4-hydroxy-benzylidene)-2-oxo-2,3-dihydro-1H-indol-5-carboxylic acid amide]: the pIC50 was above 6.00.

`O=C1Nc2ccc(-c3cccnc3)cc2C1=Cc1cc(Br)c(O)c(Br)c1` [Example 138, 3-(3,5-Dibromo-4-hydroxy-benzylidene)-5-pyrid-3-yl-1,3-dihydro-indol-2-one]: the pIC50 was above 6.00.

`O=C1Nc2ccc(-c3ccsc3)cc2C1=Cc1cc(Br)c(O)c(Br)c1` [Example 139, 3-(3,5-Dibromo-4-hydroxy-benzylidene)-5-thiophen-3-yl-1,3-dihydro-indol-2-one]: the pIC50 is above 6.00.

On to `CNc1nc(-c2ccc3c(c2)C(=Cc2cc(Br)c(O)c(Br)c2)C(=O)N3)cs1` [Example 140], for which the pIC50 was above 6.00.

Turning to `CNc1nc(-c2ccc3c(c2)C(=Cc2cc(Cl)c(O)c(Cl)c2)C(=O)N3)cs1` [Example 141], the pIC50 was above 6.00.

Take `O=C1Nc2ccc(-c3nnn[nH]3)cc2C1=Cc1cc(Br)c(O)c(Br)c1` [Example 142, 3-(3,5-Dibromo-4-hydroxy-benzylidene)-5-(1H-tetrazol-5-yl)-1,3-dihydro-indol-2-one]: the pIC50 is above 6.00.

Consider `Cc1nc(-c2ccc3c(c2)C(=Cc2cc(Br)c(OC(=O)N(CCO)CCO)c(Br)c2)C(=O)N3)cs1` [Example 144, N[bis(2-Hydroxyethyl)]-carbamic acid 2,6 dibromo-4-[5-(2-methyl-thiazol-4-yl)-2-oxo-1,2-dihydro-indol-3-ylidenemethyl]-phenyl ester], for which the pIC50 was 4.00 to 5.00.

Consider `Cc1nnc(-c2ccc3c(c2)C(=Cc2cc(Br)c(O)c(Br)c2)C(=O)N3)o1` [Example 145, 3-(3,5-Dibromo-4-hydroxy-benzylidene)-5-(5-methyl-[1,3,4]oxadiazol-2-yl)-1,3-dihydro-indol-2-one], for which the pIC50 is above 6.00.

For `O=C(OCc1ccccc1)Oc1c(Br)cc(C=C2C(=O)Nc3ccc(Cl)cc32)cc1Br` [Example 146, Benzyl 2,6-dibromo-4-[(5-chloro-2-oxo-1,2-dihydro-3H-indol-3-ylidene)methyl]phenyl carbonate], the pIC50 is 4.00 to 5.00.

Regarding `CCOC(=O)Oc1c(Br)cc(C=C2C(=O)Nc3ccc(Cl)cc32)cc1Br` [Example 147, 2,6-Dibromo-4-[(5-chloro-2-oxo-1,2-dihydro-3H-indol-3-ylidene)methyl]phenyl ethyl carbonate], the pIC50 is 4.00 to 5.00.

With `CC(C)COC(=O)Oc1c(Br)cc(C=C2C(=O)Nc3ccc(Cl)cc32)cc1Br` [Example 148, 2,6-Dibromo-4-[(5-chloro-2-oxo-1,2-dihydro-3H-indol-3-ylidene)methyl]phenyl isobutyl carbonate], the pIC50 is 4.00 to 5.00.

Regarding `O=C(OCc1cccnc1)Oc1c(Br)cc(C=C2C(=O)Nc3ccc(Cl)cc32)cc1Br` [Example 149, 2,6-Dibromo-4-[(5-chloro-2-oxo-1,2-dihydro-3H-indol-3-ylidene)methyl]phenyl 3-pyridinylmethyl carbonate], the pIC50 is 4.00 to 5.00.

In the case of `CC(C)(C)C(=O)OCOc1c(Br)cc(C=C2C(=O)Nc3ccc(Cl)cc32)cc1Br` [Example 150, 2,6-Dibromo-4-[(5-chloro-2-oxo-1,2-dihydro-3H-indol-3-ylidene)methyl]phenoxymethyl pivalate], the pIC50 was 4.00 to 5.00.

With `O=C1Nc2ccc(I)cc2C1=Cc1cc(Br)c(OC(=O)N2CCOCC2)c(Br)c1` [Example 151, 2,6-Dibromo-4-[(5-iodo-2-oxo-1,2-dihydro-3H-indol-3-ylidene)methyl]phenyl 4-morpholinecarboxylate], the pIC50 is 4.00 to 5.00.

Turning to `O=C(NCCOCCO)Oc1c(Br)cc(C=C2C(=O)Nc3ccc(I)cc32)cc1Br` [Example 152, 2,6-Dibromo-4-[(5-iodo-2-oxo-1,2-dihydro-3H-indol-3-ylidene)methyl]phenyl N-[2-(2-hydroxyethoxy)ethyl]carbamate], the pIC50 is above 6.00.
